Test results taken from publication PMC6832649, “Sa12b Peptide from Solitary Wasp Inhibits ASIC Currents in Rat Dorsal Root Ganglion Neurons” (Toxins, 2019).
Entries after “also recorded” stand apart in the source; their conditions may differ. Where no end group is shown, it is not given here.

Key:
hASIC3 = test system: hASIC3; design: method as in PMID 15044953; details: ref [34]; cited from earlier work
rASIC3 = test system: rASIC3; design: method as in PMID 15044953; details: ref [34]; read-out: IC50, homomeric rASIC3; cited from earlier work
[1] = pH not stated for this peptide; ref [37]; cited from earlier work
Excerpt: RFa-related peptides have an NH2 group which is positively charged at pH 5 to 8 [21]. The effects of Sh5b could be due to the positive charge given by its amine group. Other inhibitors of ASICs, such as the PhcrTx1 peptide, which at pH 7.4 has a net charge of +5.03, APETx2 (net charge = +2.00), and PcTx1 (net charge = +3) also have that particularity. Aminoglycosides are also positively-charged ASICs modulators.

[2] = test system: ASIC currents in rat dorsal root ganglion (DRG) neurons; test: ASIC currents in DRG neurons, whole-cell voltage clamp; type: cell-based, Long-Evans CII rat (P7-P10)
Experimental: To study the effect of Sa12b and Sh5b on ASIC, DRG neurons were obtained from Long-Evans CII / ZV rats of 7 to 10 days of postnatal age, of either sex. Animals were provided by the laboratory animal facility ‘Claude Bernard’ of the Autonomous University of Puebla. The study was performed in accordance with the recommendations in the Guiding Principles in the Care and Use of Vertebrate Animals in Research and Training of the American Physiological Society, and with the regulations of the NOM-062-ZOO-1999 of the Mexican Ministry of Agriculture, Stockbreeding, Rural Development, Fishing and Food. The protocol was reviewed and approved by the Institutional Committee for Animal Care and Use (IACUC) of the Autonomous University of Puebla (VIEP-BUAP) on 17 July 2017. The ethical approval code is SOEE-UALVIEP-17-1. All efforts were made to minimize animal suffering and to reduce the number of animals used. DRG neurons were isolated and maintained in primary culture according to the methodology described previously. The dissection and cell culture were performed within a level I biosafety laminar flow hood (Nuaire, Plymouth, MN, USA). Rats were anesthetized with sevoflurane and sacrificed by decapitation. Subsequently, the rat was placed in prone position to make a longitudinal incision through the vertebral bodies removing the spinal cord. Dorsal root ganglia were isolated (approximately 12 to 18 per rat) using conventional dissection under a stereoscopic microscope (American Optical, Southbridge, MA, USA). Once extracted, DRG neurons were placed in a disposable sterile centrifuge tube (Corning, Corning, NY, USA), in which they were incubated for 30 min at 37 °C in Leibovitz L15 medium (L15) (Invitrogen, Waltham, MA, USA), added with 1.25 mg/mL of trypsin and 1.25 mg/mL of collagenase (both from Sigma-Aldrich, St. Louis, MO, USA) for an enzymatic dissociation.
After the enzymatic treatment, the ganglia were washed 3 times with 100% L15 medium; after each wash, the cells were subjected to mechanical dissociation using glass three-gauge Pasteur pipettes; between each wash, a cell pellet was formed using a centrifuge at 5000 rpm. After the third wash, once the cell pellet was formed, the supernatant was discarded, and the cell suspension was placed in a 35 mm culture dish (Corning) on 12 × 10 mm glass plates (Corning) previously treated with poly-D-lysine (Sigma-Aldrich, St. Louis, MO, USA).
Dissociated neurons were incubated for a period of time ranging from 2 to 8 h in a humidified atmosphere ([…], 5% CO2, at 37 °C) using a water-jacketed CO2 incubator (Nuaire, Plymouth, MN, USA) allowing for settlement and adhesion of isolated cells to the glass plates. The cells were cultured in modified L15 medium, supplemented with 10% fetal bovine serum (Gibco, Waltham, MA, USA), 100 IU penicillin (Lakeside, Hayward, CA USA), fungizone 2.5 μL/mL (Gibco), NaHCO3 15.7 mM (J.T. Baker, Radnor DE, USA) and 15.8 mM HEPES (Sigma-Aldrich, St. Louis, MO, USA).
After an incubation period of 2 to 8 h, the recording of ASIC currents in DRG neurons was performed. Cells were transferred to a recording chamber mounted in a phase-contrast inverted microscope (TMS, Nikon Co. Tokyo, Japan).
The recording chamber was constantly perfused with extracellular solution (Table 3). Recordings were performed in whole-cell voltage-clamp mode using an Axopatch 1D amplifier (Molecular Devices, Union City, CA, USA). Data collection and generation of commands for the perfusion change were carried out by the pClamp 9.2 (Molecular Devices) software in a 16-bit data acquisition system (Digidata 1320, Molecular Devices). […] The signals were digitized at 5 kHz. The series resistance was electronically compensated at 80%. Throughout the recording, access resistance and seal quality were monitored to ensure stable recording conditions.
Proton-gated currents were obtained with a holding potential of −60 mV. […]

ASIC1b = details: ref [9]; read-out: EC50, agonist of ASIC1b; cited from earlier work
ASIC1a = details: ref [38]; cited from earlier work
ASIC currents = details: 10 μM stated to be close to the EC50 of FMRFa; no reference given; cited from earlier work
Experimental: The peptide was initially tested at 10 μM, this concentration was used because it is close to the EC50 of FMRFa. With application of 10 µM Sa12b in preincubation form (20 s before and 5 s during acid pulse), Sa12b inhibited ASIC currents 92.7 ± 7.3% (p < 0.05 paired Student’s t-test, n = 5) (Figure 2A).

[3] = biological target: Acid-Sensing Ion Channels (ASIC) of rat dorsal root ganglion neurons
[4] = biological target: Acid-Sensing Ion Channels (ASIC) of rat dorsal root ganglion neurons; remark: listed apart in the source
[5] = Sh5b 100 nM, co-application, mean ± E.S., n = 5
[6] = Sh5b 100 nM, preincubation, mean ± E.S., n = 9
[7] = Sh5b 100 nM, preincubation, single recording, Figure 6A
[8] = Sh5b 1 µM, preincubation, single recording, Figure 6B
[9] = Sh5b 3 µM, co-application, single recording, Figure 5A
[10] = Sh5b 10 µM, co-application, mean ± E.S., n = 9
[11] = Sh5b 10 µM, co-application, single recording, Figure 5B
[12] = Sh5b 10 µM, preincubation, mean ± E.S., n = 12
[13] = Sh5b 10 µM, preincubation, single recording, Figure 6C
[14] = Sh5b 30 µM, co-application, mean ± E.S., n = 6
[15] = Sh5b 30 µM, co-application, single recording, Figure 5C

APETx2
IC50 (hASIC3): ~0.175 µM | IC50 (rASIC3): 0.037 to 0.063 µM | net charge [1]: +2.00

DVDHVFLRF-NH2 [Sh5b]
effect on analyzed parameters of ASIC current ([2]; Sh5b 100 nM, co-application, n = 5): no consistent concentration-dependent effects | % ISS change (increase 🡹) [2, 5]: 🡹 85 ± 74% | % Ipeak change (decrease 🡻) [2, 5]: 🡻2 ± 4% | % Ƭdes change (decrease 🡻) [2, 5]: 🡻 1 ± 2% | effect on analyzed parameters ([2]; Sh5b 100 nM, preincubation, n = 9): no effect | % ISS change (increase 🡹) [2, 6]: 🡹 53 ± 38% | % Ipeak change (decrease 🡻) [2, 6]: 🡻0.5 ± 6% | % Ƭdes change (increase 🡹) [2, 6]: 🡹 13 ± 15% | change in Ƭdes [2, 7]: no change | increase of ISS [2, 7]: 3% | increase of Ipeak [2, 7]: 1% | % Ƭdes change (increase 🡹) ([2]; Sh5b 1 µM, preincubation, mean ± E.S., n = 5): 🡹 3 ± 5% | inhibition of ISS [2, 8]: 5% | inhibition of Ipeak [2, 8]: 1% | % Ipeak change (decrease 🡻) ([2]; Sh5b 3 µM, co-application, mean ± E.S., n = 12): 🡻6 ± 3% | increase of ISS [2, 9]: 30% | reduction of Ipeak [2, 9]: 9.6% | overall change of Ipeak ([2]; Sh5b 10 µM, co-application, increase in some cells, decrease in others): non-significant | % ISS change (increase 🡹) [2, 10]: 🡹 1 ± 11% | % Ƭdes change (decrease 🡻) [2, 10]: 🡻 10 ± 5% | % Ipeak change (increase 🡹) ([2]; Sh5b 10 µM, co-application, mean ± E.S., n = 9, non-significant): 🡹17 ± 15% | increase of ISS [2, 11]: 14.6% | increase of Ipeak [2, 11]: 44.6% | effect on studied parameters ([2]; Sh5b 10 µM, preincubation, n = 12): did not produced significant effects | % ISS change (decrease 🡻) [2, 12]: 🡻 8 ± 15% | % Ipeak change (decrease 🡻) [2, 12]: 🡻11 ± 4% | % Ƭdes change (decrease 🡻) [2, 12]: 🡻 5 ± 4% | change in Ƭdes [2, 13]: no change | increase of ISS [2, 13]: 26% | inhibition of Ipeak [2, 13]: 18% | ISS amplitude ([2]; Sh5b 30 µM, co-application, from 79 pA before peptide, single recording, Figure 5C): 159 pA | % Ipeak change (decrease 🡻) [2, 14]: 🡻1 ± 6% | % Ƭdes change (increase 🡹) [2, 14]: 🡹 9 ± 5% | increase of ISS [2, 15]: 102% | inhibition of Ipeak [2, 15]: 3.8% | overall effect on ASIC currents ([2]; Sh5b, both application protocols): did not show consistent results having both excitatory and inhibitory effects on the maximum ASIC currents; also recorded: did not produce consistent, reproducible, effects | concentration dependence of effects on ASIC current ([2]; Sh5b, co-application, 100 nM-30 µM): not dependent on concentration | effect on ISS/Ipeak relationship ([2]; Sh5b, co-application, overall): tendency towards the increase | effect on Ƭdes ([2]; Sh5b, co-application, overall): did not show noticeable differences | effect on ISS component ([2]; Sh5b, overall, preincubation): increased slightly | effect on ISS/Ipeak relationship ([2]; Sh5b, preincubation, overall): also increased | effect on current peak ([2]; Sh5b, preincubation, overall): tendency to inhibit the current peak | effect on Ƭdes and integral of the current ([2]; Sh5b, preincubation, overall): no consistent changes | reversibility of effect on ASIC current ([2]; after 1 min washout): reversed by 1 min peptide washout

PcTx1
EC50 (ASIC1b): ~0.1 µM | IC50 (ASIC1a): 0.001 µM | net charge [1]: +3

Phe-Met-Arg-Phe amide [FMRFa, abundant tetrapeptide in invertebrate nervous systems, neurotransmitter and neuromodulator]
EC50 (ASIC currents): ~10 µM

Sa12b peptide
percent decrease of the ASIC I peak at pH 6.1, Sa12b by preincubation, 30 nM to 10 µM (highest at 1 µM), whole-cell voltage clamp of rat DRG neurons [3]: 98 % I_(peak)

DVDHVFLRF-NH2 [Sh5b peptide]
percent decrease of the ASIC I peak at pH 6.1, Sh5b by preincubation, 100 nM to 10 µM (largest at 10 µM; not significant), whole-cell voltage clamp of rat DRG neurons [4]: 11 % I_(peak)
